Key:
Assay type in all cases: cell-based
A. niger = experiment: Synergy study of PC and (CHA + IPMP), MIC by broth dilution; settings: compound acting alone
Experimental: (§1) The synergistic activity of PC and (CHA+IPMP) compounds were performed against selected microbial strains.
(§2) Tryptic Soy Broth (TSB) media was used for bacterial evaluations and Yeast Malt Broth (YMB) for fungal evaluations. The IPMP solution is prepared by combining 0.25% IPMP with 20% DMSO and water (q.s. 100%). The CHA solution was prepared by combining 0.5% CHA with 20% DMSO and water (q.s. 100%). The compounds are then added to the media (50 μL) and serially diluted. The same amount of PC was added to all wells (e.g. 50 μL of 6.25% solution). 100 μl of a suspension of the testing bacteria or fungi are added to a final concentration of approximately 10^6 CFU/ml in double concentrated media. The inoculated media is then incubated at 32° C. for 2-5 days for bacteria or at 28° C. for 3-7 days for fungi.
(§3) The lowest concentration of each compound or mixture of compounds to inhibit visible growth is taken as the minimum inhibitory concentration (MIC). The MIC is taken as end points of activity. End points for the mixture of compound A (CHA) and compound B (IPMP) with and without PC are then compared with the end points for the pure active ingredient alone.
(§4) Synergism was determined by a commonly used and accepted method described by Kull A. C; Eisman, P. C.; Sylwestrowicz, H. D. and Mayer, R. L. 1961. Applied Microbiology, 9:538-541 using the ratio determine by: Qa/QA+Qb/QB=Synergy Wherein: • QA is the concentration of compound A in PPM, acting alone, which produced an end point. • Qa is the concentration of compound A in PPM, in the mixture, which produced an end point. • QB is the concentration of compound B in PPM, acting alone, which produced an end point. • Qb is the concentration of compound B in PPM, in the mixture, which produced an end point When the sum of Qa/QA+Qb/QB is greater than one, antagonism is indicated. When the sum is equal to one, additive is indicated.
(§5) The results comprise following parameters: 1. Test organism (bacteria or fungi), 2. The end-point activity in % measured by MIC for the compound A alone (QA), for compound A in the mixture (Qa), for compound B alone (QB), for compound B in the mixture (Qb), 3. The ratio of CHA and IPMP (compound A and B) in that particular combination, 4. The sum of Qa+Qb (total ppm that inhibited growth) and 5. and the synergy index (SI) based on the formula SI=Qa/QA+Qb/QB

E. coli = experiment: as above; settings: compound acting alone
Experimental: as §1, §2, §3, §4, §5

C. albicans = experiment: as above; settings: compound acting alone
Experimental: as §1, §2, §3, §4, §5

B. cepacia = experiment: as above; settings: compound acting alone
Experimental: as §1, §2, §3, §4, §5

[1] = Antimicrobial and antifungal characteristics (MIC) of propylene carbonate alone
Description: In one embodiment of the application, the synergistic composition of propylene carbonate with one or more organic compounds or preservative compounds can provide broad spectrum antimicrobial properties. […] The presence of propylene carbonate in the composition can maximize the partitioning of the mixture of organic/preservative compounds into the water phase when added to an end-user composition comprising a mixture of oil and a water phase. Further, the propylene carbonate-based compositions or blends acts as a delivery agent for other preservative/organic actives that have low polarity with high dielectric constant making it a suitable blend to dissolve hydrophobic non-polar actives. The high dielectric constant of the composition enables it to partition the active ingredients towards the oil/water interface which is critical for maximum efficacy and reduces use levels of preservatives or boosters.

CCCCCCCC(=O)NO [CHA, caprylhydroxamic acid]
MIC (A. niger; Aspergillus niger, read-out: MIC, CHA alone (QA)): 312 mg/L | MIC (E. coli; Escherichia coli, read-out: MIC, CHA alone (QA)): 625 mg/L | MIC (C. albicans; Candida albicans, read-out: MIC, CHA alone (QA)): 312 mg/L | MIC (B. cepacia; Burkholderia cepacia, read-out: MIC, CHA alone (QA)): 312 mg/L

Cc1cc(O)ccc1C(C)C [IPMP, isopropyl methylphenol]
MIC, IPMP alone (QB) (A. niger): 156.3 ppm | MIC, IPMP alone (QB) (E. coli): 625 ppm | MIC, IPMP alone (QB) (C. albicans): 312.5 ppm | MIC, IPMP alone (QB) (B. cepacia): 312.5 ppm

CC1COC(=O)O1 (stereo not drawn) [Propylene carbonate]
Antimicrobial and antifungal characteristics (MIC) [1]: no significant antimicrobial and antifungal characteristics

Reference: patent US12082582B2, “Synergistic preservative compositions, process for preparing the same and method of use thereof” (ISP INVESTMENTS LLC, priority 2018, dated 2024)
